PMC11406516, “The Tuberculosis Drug Candidate SQ109 and Its Analogs Have Multistage Activity against Plasmodium falciparum” (ACS Infectious Diseases, 2024)
Values after ≈ are worked out from the molar mass of the structure shown. Like-named read-outs stand apart in the source and are kept apart here. Marks after values point to notes of the source that are not given here.

Assays:
[1] = system: PfNF54 LGc (stage IV/V gametocytes); test: PrestoBlue late-stage gametocyte viability assay; type: cell-based, Plasmodium falciparum; conditions: Plasmodium falciparum, read-out: PfNF54 LGc IC50
Procedure: Gametocytogenesis was induced on highly synchronized (>95%) asexual ring-stage parasites from PfNF54 at 0.5% parasitemia and 6% hematocrit and thereafter maintained in glucose-deprived media as previously described.[29],[15] After 3 days, the hematocrit was decreased to 4%. Parasites were maintained in complete culture media supplemented with 50 mM N-acetyl-glucosamine 5–10 days post induction to inhibit proliferation of residual asexual blood stages. Gametocyte progression and morphology was also monitored microscopically using Giemsa-stained thin smears.
activity against the sexual stages of P. falciparum was evaluated using the PrestoBlue fluorescence assay as previously described.[4] Activity was measured on PfNF54 stage IV/V gametocytes (2% gametocytemia, 5% hematocrit) previously seeded with compounds (in non-lethal DMSO) for 48 h drug pressure, after which PrestoBlue reagent was added and incubated for 2 h. Fluorescence was detected in the supernatant at 612 nm. Dihydroartemisinin (DHA) was used as a positive drug control.

physchem = type: physicochemical; conditions: 37 °C, pH 6.5, aqueous buffer, thermodynamic from solid
Procedure: The stock solutions (10^–2 M) of the assayed compounds were diluted to decreased molarity, from 300 to 0.1 μM, in 384 well transparent plate (Greiner 781801) with 1% DMSO:99% PBS buffer. Then, they were incubated at 37 °C and the light scattering was measured after 2 h in a NEPHELOstar Plus (BMG LABTECH). The results were adjusted to a segmented regression to obtain the maximum concentration in which compounds are soluble.
The solubility of each product was evaluated using an HPLC Agilent 1100 with a DAD detector. The samples were injected in an Agilent Poroshell 120 EC-C18, 2.7 μm, 50 mm × 4.6 mm column at 40 °C and 0.6 mL/min flow. The mobile phase was a mixture of A = water with 0.05% formic acid and B = acetonitrile with 0.05% formic acid. The procedure followed was from 95% A–5% B to 100% B in 3 min, 100% B in 3 min, from 100% B to 95% A–5% B in 1 min, 95% A–5% B in 3 min; the injection volume was set at 75 μL. […] The samples remained at these conditions between 12–24 h. Then, the samples were filtered through a 0.45 μm PVDF filter and either directly analyzed or diluted before analyzing. The obtained area under the curve was compared with the one from the standard solution.

[2] = HepG2 cytotoxicity, LDH release assay; conditions: human, HepG2 cells
Procedure: (§1) Furthermore, compounds were evaluated against late (stage IV/V) gametocytes from PfNF54 (PfNF54 LGc), with viability detected with PrestoBlue,[15] and orthogonally evaluated for toxicity against a human hepatocellular carcinoma line, HepG2.[16]
(§2) Human hepatocellular liver carcinoma cells (HepG2) were cultivated in vitro in Dulbecco’s Modified Eagle’s Medium (DMEM) supplemented with 10% (v/v) heat inactivated fetal bovine serum and 1% (v/v) penicillin/streptomycin.[14] Cells were detached with trypsin treatment at 80% confluency and were seeded in 96-well plates to adhere for 24 h under 5% CO2, humid (95%) conditions. Cells were subsequently exposed to drug pressure for 24 h and cytotoxicity was then determined using the lactate dehydrogenase (LDH) release assay through the colorimetric detection at 450 nm, as previously outlined.[4],[16]

PfNF54 ABS [3] = test: SYBR Green I proliferation assay, asexual blood stages, drug-sensitive NF54; conditions: for IC50: Plasmodium falciparum, NF54, 96 h, read-out: Pf ABS IC50 NF54
Procedure: (§3) P. falciparum asexual parasites were cultured from drug-sensitive NF54 (PfNF54) and multidrug resistant strains PfK1. Parasites were maintained in human erythrocytes (O+, suspended at 5% hematocrit) in RPMI-1640 culture medium (23.81 mM sodium bicarbonate, 0.024 mg/mL gentamycin, 25 mM HEPES pH 7.5, 0.2% D-glucose, 0.2 mM hypoxanthine and Albumax II) under hypoxic conditions (5% CO2, 5% O2 and 90% N2) with moderate shaking (60 rpm) at 37 °C. Cultures were synchronized to >95% in the ring stage with 5% (w/v) D-sorbitol treatment.[28]
(§4) Activity against the asexual stage of P. falciparum was evaluated using the SYBR Green I-based fluorescence assay as previously described.[4],[16] Cellular proliferation was measured on synchronized in vitro PfNF54 ring-stage parasites (1% parasitemia, 2% hematocrit), following drug pressure for 96 h. Chloroquine was used as the positive drug control for complete inhibition of parasite proliferation.

male gametes (PfNF54) = test: Male gamete exflagellation inhibition assay (EIA); type: cell-based; conditions: Plasmodium falciparum, 48 h, read-out: male gamete inhibition %
Procedure: The EIA was performed using video microscopy by capturing the movement of exflagellation centers over time as previously described.[4],[30] Mature PfNF54 stage V gametocytes (>95%;) were treated with 2 μM of drug for 48 h before the activation of exflagellation, without removing drug pressure. Movement was semi-automatically quantified from 15 videos of 8–10 s each between 15 and 22.5 min after incubation. Each video was analyzed using ICY-bio image analysis software.

female gametes = test: Female gamete inhibition assay; type: cell-based, Plasmodium falciparum; set-up: concentration or dose not given beside the values
Procedure: Similarly, female gametes were activated as described previously.[31] Monoclonal anti-Pfs antibody conjugated to FITC was used to detect female gametes. Image acquisition was performed using a Zeiss Axio Lab.A1 epifluorescence microscope with a 100/1.4 numerical aperture (NA) oil immersion. Thirty images were captured per sample and analyzed manually.

oocyst formation = test: Standard membrane feeding assay (SMFA), oocyst formation in Anopheles coluzzii; type: in vivo; conditions: Plasmodium falciparum
Procedure: Transmission-blocking activity was confirmed in the standard membrane feeding assay (SMFA), by determining transmission-reducing activity (TRA; reduction in oocyst counts) and transmission-blocking activity (TBA, reduction in oocyst prevalence), 8–10 days after feeding female mosquitoes on gametocyte-infected blood, treated with selected compounds (at 2 μM).
SMFA was performed using glass feeders as is outlined.[4],[16] Once again, mature stage V gametocytes (>95%) were treated with 2 μM of each compound for 48 h prior to feeding. Anopheles coluzzii females were allowed to feed on gametocyte cultures (1.5–2.5% gametocytemia, 50% hematocrit in A+ male serum with fresh erythrocytes) in the dark for 40 min. All unfed or partially fed mosquitoes were removed, and remaining females housed for 8–10 days. Mosquitoes were dissected to remove midguts, and oocysts counted under bright field illumination at ×20–×40 magnification. The percentage of block in transmission (transmission-blocking activity; TBA) and the percentage of reduction in the number of oocysts (transmission-reducing activity; TRA) were calculated after normalizing to the control untreated sample.

PfK1 = test: SYBR Green I proliferation assay, asexual blood stages, multidrug-resistant K1; conditions: Plasmodium falciparum, K1, read-out: Pf ABS IC50 K1
Procedure: as §3, §4

HepG2 cells [4] = system: HepG2 cells; set-up: method as in Stampolaki et al.[5]; conditions: compound at 20 μM; ref Stampolaki et al.[5]; cited from earlier work
in vitro = in vitro ADME; conditions: microsomes
Procedure: The microsomal stability assay used a single-point assay design (Di et al., 2004). Briefly, the compounds were incubated at 1 μM in human, rat, and mouse liver microsomes (0.4 mg/mL) for 30 min at 37 °C. Reactions were quenched by adding ice-cold acetonitrile containing internal standard (carbamazepine, 0.0236 μg/mL). The samples were then centrifuged, and the samples were analyzed by liquid chromatography with tandem mass spectrometry (LC-MS/MS) (Agilent Rapid Resolution HPLC, AB SCIEX 4500 MS) for the disappearance of the parent compound. Half-life, clearance and hepatic […] ratios were determined using standard equations.

HepG2 cells [5] = test: HepG2 cytotoxicity, LDH release assay; conditions: Homo sapiens, HepG2, 24 h, read-out: HepG2 EC50
Procedure: as §1, §2

PfNF54 ABS [6] = system: PfNF54 ABS; set-up: method as in Stampolaki et al.[5]; conditions: drug-sensitive NF54; ref Stampolaki et al.[5]; read-out: Pf ABS IC50 NF54; cited from earlier work
[7] = stage IV/V gametocytes, 48 h drug pressure
[8] = 48 h drug treatment at 2 μM, single biological repeat, read-out: oocyst formation (% inhibition) TBA
[9] = 48 h drug treatment at 2 μM, single biological repeat, read-out: oocyst formation (% inhibition) TRA

| Structure (SMILES) | IC50 [1, 7] [nM] | viability at 24 h, 20 µM [2] [%] | IC50 (PfNF54 ABS [3]) [nM] | female gamete inhibition % (female gametes) [%] | IC50 (PfK1) [nM] | further results |
| --- | --- | --- | --- | --- | --- | --- |
| CC(C)=CCC/C(C)=C/CNCCNCc1ccccc1 [Compound 12] | 410 ± 200 | 94 | 4320 ± 600 | – | – | solubility (physchem): 160 µM (≈ 45.8 µg/mL) |
| CC(C)=CCC/C(C)=C/CNCCNC1CC2CCC1C2 (stereo not shown) [Compound 10] | 500 ± 70 | 97 | 1170 ± 200 | – | – | solubility (physchem): 155 µM (≈ 45 µg/mL) |
| CC(C)=CCNCCNC1C2CC3CC(C2)CC1C3 (stereo not shown) [Compound 26] | 370 ± 60 | 99 | 4280 ± 360 | – | – | – |
| CC(C)=CCC/C(C)=C/CNCCOC1C2CC3CC(C2)CC1C3 (stereo not shown) [Compound 16] | > 10000 | 99 | 3780 ± 750 | – | – | – |
| CC(C)=CCC/C(C)=C/CC/C(C)=C/CNCCNC1C2CC3CC(C2)CC1C3 (stereo not shown) [Compound 21] | 510 ± 70 | 75 | 650 | 86.30 ± 2.58 | 1820 ± 310 | inhibition at 2 µM (male gametes (PfNF54)): 95.5 ± 4.55%; inhibition at 2 µM (oocyst formation; 48 h, read-out: oocyst formation (% inhibition) TBA): 20%; inhibition at 2 µM (oocyst formation; 48 h, read-out: oocyst formation (% inhibition) TRA): 56% |
| CC(C)=CCC/C(C)=C/CNC(=O)CNC1C2CC3CC(C2)CC1C3 (stereo not shown) [Compound 18] | – | – | – | – | – | IC50 ([1]; 48 h): > 10000 nM; HepG2 % viability (HepG2 cells [4]): 99%^b |
| CCCC1(NCCNC/C=C(\C)CCC=C(C)C)C2CC3CC(C2)CC1C3 (stereo not shown) [Compound 6] | 370 ± 20 | – | 500 ± 140 | 64.59 ± 12.33 | 1330 ± 500 | solubility (physchem): 334 µM (≈ 124 µg/mL); microsomal CLint at 1 µM (in vitro; human): 322 µL/min/mg; microsomal CLint at 1 µM (in vitro; mouse): 308 µL/min/mg; microsomal CLint at 1 µM (in vitro; rat): 400 µL/min/mg; inhibition at 2 µM (male gametes (PfNF54); 2 μM): 34.6 ± 14.3%; inhibition at 2 µM (oocyst formation; [8]): 67%; inhibition at 2 µM (oocyst formation; [9]): 53%; HepG2 % viability (HepG2 cells [4]): 100^%c |
| CC(C)=CCC/C(C)=C/CNCCNC12CC3CC(CC(C3)C1)C2 [Compound 9] | 700 ± 10 | – | 990 ± 210 | 90.50 ± 7.17 | 2320 ± 550 | inhibition at 2 µM (male gametes (PfNF54); 2 μM): 96.7 ± 3.33%; inhibition at 2 µM (oocyst formation; [8]): 47%; inhibition at 2 µM (oocyst formation; [9]): 70%; EC50 (HepG2 cells [5]): 12900 ± 1400 nM |
| CC(C)=CCC/C(C)=C/CNCC(=O)NC1C2CC3CC(C2)CC1C3 (stereo not shown) [Compound 17] | > 10000 | – | – | – | – | IC50 (PfNF54 ABS [6]): 6490 ± 330 nM; HepG2 % viability (HepG2 cells [4]): 100%^b |
| CC(C)=CCC/C(C)=C/COCCNC1C2CC3CC(C2)CC1C3 (stereo not shown) [Compound 15] | > 10000 | 100 | 2460 ± 140 | – | – | – |
| c1ccc(CNCCNC2C3CC4CC(C3)CC2C4)cc1 (stereo not shown) [Compound 25] | 110 ± 60 | 91 | 3990 ± 280 | – | – | – |
| CC(C)=CCC/C(C)=C/CNCCNC1(C)C2CC3CC(C2)CC1C3 (stereo not shown) [Compound 7] | 200 ± 20 | – | – | 34.05 ± 9.23 | 860 ± 270 | solubility (physchem): 773 µM (≈ 266 µg/mL); microsomal CLint at 1 µM (in vitro; human): 254 µL/min/mg; microsomal CLint at 1 µM (in vitro; mouse): 348 µL/min/mg; microsomal CLint at 1 µM (in vitro; rat): 373 µL/min/mg; inhibition at 2 µM (male gametes (PfNF54); 2 μM): 27.1 ± 14%; IC50 (PfNF54 ABS [6]): 660 ± 160 nM; HepG2 % viability (HepG2 cells [4]): 100%^c |
| CC(C)=CCC/C(C)=C/CNCCNC1CC2CCC1CC2 (stereo not shown) [Compound 11] | 220 ± 40 | 100 | 1660 ± 300 | – | – | – |
| C1CCC(CCNCCNC2C3CC4CC(C3)CC2C4)CC1 (stereo not shown) [Compound 24] | > 10000 | 27 | 1240 ± 80 | – | – | – |
| CCC1(NCCNC/C=C(\C)CCC=C(C)C)C2CC3CC(C2)CC1C3 (stereo not shown) [Compound 2] | 580 ± 40 | – | – | 78.88 ± 4.46 | 100 ± 20 | solubility (physchem): 840 µM (≈ 301 µg/mL); inhibition at 2 µM (male gametes (PfNF54); 2 μM): 95.5 ± 4.55%; IC50 (PfNF54 ABS [6]): 160 ± 70 nM; EC50 (HepG2 cells [5]): 5210 ± 1330 nM; fold improvement in ABS activity compared to 1 (PfNF54 ABS [3]; PfNF54 ABS): 10 fold |
| CC(C)=CCC/C(C)=C/CN(C)CCNC1C2CC3CC(C2)CC1C3 (stereo not shown) [Compound 14] | > 10000 | 100 | 1090 ± 350 | – | – | – |
| CCCCC1(NCCNC/C=C(\C)CCC=C(C)C)C2CC3CC(C2)CC1C3 (stereo not shown) [Compound 3] | 300 ± 30 | – | – | 67.05 ± 0.39 | 130 ± 30 | inhibition at 2 µM (male gametes (PfNF54); 2 μM): 81.4 ± 8.64%; inhibition at 2 µM (oocyst formation; [8]): 36%; inhibition at 2 µM (oocyst formation; [9]): 11%; IC50 (PfNF54 ABS [6]): 270 ± 40 nM; EC50 (HepG2 cells [5]): 10200 ± 1700 nM |
